Experimental data reported in patent US10471054B2, “CDK1 inhibitors of acetyl chrysin mannich base derivatives, synthesis and use thereof” (priority 2016, dated 2019).
In brackets after ≈: the same amount, converted by molar mass. Where two headings read alike, the source gives them in different places.

Assays:
log P in Octanol/Water = format: physicochemical; details: octanol/water, Octanol/Water at 37° C.
Procedure: (§1) The solubility and log P of acetyl ChrysinMannich base derivatives see TABLE 1.
(§2) CH-j is pKa 5.3, log P 1.63 in Octanol/Water at 37° C. […] (BA-j 77m/ml). CH-j belongs to BCS II (low solubility, high permeability) and solubility presents the pH dependence. […] CH-j is a pH dependent fast release. […] It is speculated that CH-j has more appropriate log P and solubility with more likely entering tissue cells than others solubility acetyl Chrysin Mannich base derivatives.
(§3) (about 20 times BA-f 277 μg/ml) and 564 μg/ml in water at 37° C. (about 1000 times BA-f 0.53m/ml). CH-f is BCS I (high solubility and permeability) and solubility presents the pH dependence. It is speculated that CH-f has more appropriate log P and solubility with entering systemic (blood system and tissue cells) than others solubility acetyl Chrysin Mannich base derivatives.

[1] = Pharmacokinetics by oral in monkey (urine drug concentration-time curve); format: in vivo; details: rhesus, monkey (n = 6), 3 mg/kg
MCF-7 [2] = assay: Autophagy in MCF-7; format: cell-based; details: 50 μM for 9 h and 24 h
[3] = oral, liver first pass effect; cited from earlier work
pKa = format: physicochemical
Procedure: as §2, §3

[4] = test system: 5 cancers cells (MCF-7, H-460, BGC-823, PC-3, Hep G2); assay: Anti-cancer cells proliferation activity, average of 5 cancer cells; format: cell-based; details: for IC50: average of 5 cancer cells
Description: (§4) Anti-cancer cells proliferationactivity of in vitro CH-j and CH-f were shown in TABLE 2 for the results of the screening of 5 cancers cells.

[5] = Protein binding rate and reversible binding rate; format: in vitro ADME; details: plasma proteins
Procedure: (§5) The combination of drugs and plasma proteins is usually reversible, and the affinity strength is determined by the reversible binding rate of the drug-protein complex. Only free drugs can spread to the tissue through the lipid membrane. By modifying the structure of the drug, the effect of the drug on the target site can be improved by improving the reversible binding rate of the drug-protein complex.
(§6) The acidic part of polyphenol hydroxyl group is combined with lysine alkaline site in albumin structure. The protein binding rate and reversible binding rate of CH-j see TABLE 2.

plasma proteins = assay: Protein binding rate and reversible binding rate; format: in vitro ADME
Procedure: as §5, §6

MCF-7 [6] = assay: Anti-cancer cells proliferation activity (MTT, 48 h); format: cell-based; details: Homo sapiens, MCF7, MCF-7, MTT
Description: as §4

H-460 = assay: as above; format: cell-based; details: Homo sapiens, NCI-H460, H-460, MTT
Description: as §4

Hep G2 = assay: as above; format: cell-based; details: Homo sapiens, HepG2
Description: as §4

PC-3 = assay: as above; format: cell-based; details: Homo sapiens, PC-3, MTT
Description: as §4

[7] = Tissue distribution in rat, 2 h; format: in vivo; details: rat
Procedure: The distribution results of CH-j tissue distribution were shown in FIG. 6, when CH-j 100 mg/kg rat by venous intravenous (i.v.) or oral (p.o.) 2 h. […] CH-j by oral in the stomach concentration of the large, about 2 time higher than other tissues. […] Compared with the intravenous administration, the oral administration was completely absorbed and the bioavailability was close to 100%.
FIG. 6: 2 h distribution of the drug (100 mg/kg) by CH-j rats: Y-coordinate is the concentration of CH-j (μg/g), by intravenous (i.v.), by oral (p.o.).

BGC-823 = assay: Anti-cancer cells proliferation activity (MTT, 48 h); format: cell-based; details: Homo sapiens, BGC-823, MTT
Procedure: as §4
FIG. 2: The initial screening results of the anticancer activity of BGC-823 (MTT, for 48 h), and X-coordinate is the drug concentration (MTT, for 48 h), and Y-coordinate the cell survival rate (%) in vitro.

CDK1 = CDK1 (Homo sapiens, UniProt P06493); assay: CDK1 inhibition activity; format: biochemical; details: for CDK1 50% inhibitory concentration: read-out: inhibiting CDK1 CC50
Chain of CDK1 (P06493 whole entry, species assumed): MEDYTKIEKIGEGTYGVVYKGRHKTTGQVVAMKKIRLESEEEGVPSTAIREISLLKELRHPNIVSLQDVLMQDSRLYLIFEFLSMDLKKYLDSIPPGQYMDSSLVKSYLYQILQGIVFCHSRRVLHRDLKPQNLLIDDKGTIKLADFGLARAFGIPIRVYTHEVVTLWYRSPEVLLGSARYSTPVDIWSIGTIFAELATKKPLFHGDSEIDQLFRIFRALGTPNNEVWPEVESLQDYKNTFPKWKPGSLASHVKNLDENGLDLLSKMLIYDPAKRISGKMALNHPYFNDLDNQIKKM
Chain of CDK1 (P14635 whole entry partner, species assumed): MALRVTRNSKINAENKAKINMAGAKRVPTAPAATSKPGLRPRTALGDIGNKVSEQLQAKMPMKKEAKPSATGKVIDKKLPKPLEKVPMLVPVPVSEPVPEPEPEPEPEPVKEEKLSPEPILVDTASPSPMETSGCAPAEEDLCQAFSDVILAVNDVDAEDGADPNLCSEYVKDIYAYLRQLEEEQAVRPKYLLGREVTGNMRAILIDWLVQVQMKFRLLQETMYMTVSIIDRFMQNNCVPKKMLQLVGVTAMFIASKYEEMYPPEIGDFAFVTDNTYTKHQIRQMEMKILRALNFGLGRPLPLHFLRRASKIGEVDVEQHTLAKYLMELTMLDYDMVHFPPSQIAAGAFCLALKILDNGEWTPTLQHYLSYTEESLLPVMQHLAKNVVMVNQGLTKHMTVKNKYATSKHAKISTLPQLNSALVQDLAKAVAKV

[8] = BA-j, see Fitoterapia, 2015; cited from earlier work
[9] = test system: PBMCs, activated lymphocytes, human normal Liver cells; assay: H2O2 level in blood and normal cells, PF1-H2O2 fluorescent probe; format: cell-based; details: CH-j: PBMCs and activated lymphocytes; BA-j: activated lymphocyte
Procedure: The cells are cancer cells (MCF-7, GBC-823, Hep G2) and normal cells (Liver, COS-7, PBMCs). According to the literature [Scientific Reports, 2015, 5: 13626; Anti-cancer Agents in Medicinal Chemistry, 2016, 16: 914-924.], in vitro cultured cells was given to CH-j 25 μM for 3.5 h, added PF1-H2O2 selective fluorescence probe 10 μM for 0.5 h and detected the concentration of H2O2 in cells, and performed fluorescence imaging by results shown in FIG. 1.
FIG. 1-3, FIG. 1-4, The fluorescence imaging by PF1-H2O2 10 μM is that CH-j […] for 4 h affected the level of H2O2 in MCF-7, GBC-823, Hep G2 and Liver.
FIG. 1-3: CH-j/BA-j affects the levels of H2O2 in blood cells, X-coordinate is the concentration of CH-j/BA-j concentration (μM), and Y-coordinate the intracellular levels of H2O2 (μM) for 4 h with PF1-H2O2 10 μM by Fluorescence Microplater Reader (488 nm/525 nm).

[10] = Solubility in Octanol, water and pH media; format: physicochemical
Procedure: as §1, §2, §3

[11] = Pharmacokinetics by oral in monkey (urine drug concentration-time curve); format: in vivo; details: monkey (n = 6), 3 mg/kg in Table 4, 5 mg/kg in text
Procedure: Chromatographic conditions and the system applies: with C18 chromatographic column (acid the tall secretory effect, 5 μm, 4.6*150 mm), in acetonitrile-methanol-water-mesylate (25:20:55:0.15) as mobile phase, detection UV 283 nm, the velocity 1 ml/min, and the sample volume 20 μl. The theoretical plate number is not less than 2000 according to CH-j peak.
Sample solution: after the macaques were drugged, the catheter was inserted. The urine by oral CH-j 5 mg/kg is collected, added the methanol at 1:4 (v:v), centrifuge and remove the liquid to measure. Control solution is CH-j methanol solution 5 μg/ml. The log P of CH-j is larger, the fat solubility strong, and absorption distribution in the body very rapid, the urine drug concentration-time curve consistent with the typical two-compartment model. Tmax1, 1.3 h, Cmax1 is […]. […] The apparent distribution volume (Vd) 42 L, mainly distributed in body fluid (BA-j Vd 12.6 L, mainly distributed in blood. See Fitoterapia, 2015, 107: 36-34)
FIG. 5: The concentration of urine drug concentration-time curve in monkey (n=6) by CH-j oral 5 mg/kg, X-coordinate is oral CH-j time (h) and Y-coordinate is the concentration of CH-j (μM).

MCF-7 and COS-7 = assay: NO level, Rh-NO fluorescent probe imaging; format: cell-based; details: 25 μM for 12, 24, 48 h, Rh-NO probe 5 μM
Procedure: [Organic Letters, 2008, 10: 2357-2360] […] This is because of cycloalkylamine-methyl releasing NO by Cope reaction, and the higher level of NO 4-methylpiperazine than 4-hydroxypiperidine.
FIG. 1-6: The performed fluorescence imaging with Rh—NO 5 μM, and add 25 μM of CH-j and CH-f for 12, 24, 48 h, affected the level of NO for 12, 24 and 48 h in MCF-7 and COS-7 by Single beam electron confocal fluorescence microscope (488/604 nm).

Bcl-2 = Bcl-2 expression in MCF-7; format: cell-based; details: 10 μM for 24 h
MCF-7 [12] = assay: Hoechst 33258 fluorescence staining, apoptosis; format: cell-based; details: 0, 5, 10, 20 μM for 24 h
Procedure: Hoechst 33258 is an active fluorescent dye with DNA specific binding, which is mainly combined with base area of DNA, which emits blue fluorescence when stimulated by ultraviolet light. The living cells emit uniform fluorescence, the apoptotic cells are bright blue fluorescence due to their chromatin fixation, dense and concentrated nuclei.
MCF-7 was treated with 0, 5, 10, 20 μM of CH-f and CH-j for 24 h, Hoechst 33258 fluorescence staining, and cell morphological changes were shown in FIG. 3-1. […] CH-f and CH-j are completely different from the cytotoxic drug HCPT, which appears to be apoptotic at low doses and necrotic at high doses in BGC-823.
FIG. 3-1 Hoechst 33258 staining results for MCF-7.

[13] = in vivo; cited from earlier work
[14] = organic solvent or mixture, Octanol, 37° C., read-out: Solubility in Octanol

O=c1cc(-c2ccccc2)oc2c(CN3CCC(O)CC3)c(O)c(O)c(O)c12 [BA-j, 5,6,7-trihydroxy-8-(4-hydroxy-piperidin-1-ylmethyl)-2-phenyl-chromen-4-one, reference compound]
logP (log P in Octanol/Water): 0.69
AUC(0-inf) [1]: 71.5 µM·h
Autophagy (MCF-7 [2]): without
Glucose aldehyde acid metabolism [3]: < 5%
pKa (pKa): 5.5
IC50 [4]: 4.7 µg/mL
IC50 ([4]; MTT, 48 h): 12.3 µM
fraction unbound ([5]; average of 3 concentrations, read-out: Protein binding rate AV (converted)): 0.082
fraction unbound at 12.5 μg/ml ([5]; drug concentration 12.5 μg/ml): 0.067
fraction unbound at 25 μg/ml ([5]; drug concentration 25 μg/ml): 0.075
fraction unbound at 50 μg/ml ([5]; drug concentration 50 μg/ml): 0.104
Reversie binding rate AV (plasma proteins; average of 3 concentrations): 20.1%
Reversie binding rate (plasma proteins; drug concentration 12.5 μg/ml): 19.1%
Reversie binding rate (plasma proteins; drug concentration 25 μg/ml): 21.0%
Reversie binding rate (plasma proteins; drug concentration 50 μg/ml): 20.2%
IC50 (MCF-7 [6]): 10.6 ± 0.3 µM
IC50 (H-460): 13.7 ± 1.83 µM
IC50 (Hep G2): 15.7 ± 1.3 µM
IC50 (PC-3): 12.8 ± 2.06 µM
Detection of prototype drug in blood, urine, tissues [7]: prototype drug can not be detected in the tissues
IC50 (BGC-823): 12.3 ± 1.73 µM
CDK1 50% inhibitory concentration (CDK1): 300 nM
V d [8]: 12.6 L
Dose dependence of H2O2 level [9]: significant dose-dependent manner, with mass apoptosis and without necrosis
solubility [10, 14]: 377 µg/mL (≈ 983 µM)
solubility ([10]; water, 37° C., text values of BA-j and BA-f, read-out: Solubility in water): 77 µg/mL (≈ 201 µM)
V d ([11]; oral): 12.6 L
t1/2β ([11]; oral): 4.2 h
Tmax ([11]; rhesus, monkey, urine, po, read-out: T max (Tmax1)): 2 h
Cmax ([11]; rhesus, urine, oral): 25.4 µM

CC(=O)c1c(O)c(CN2CCN(C)CC2)c2oc(-c3ccccc3)cc(=O)c2c1O [CH-f, 6-Acetyl-5,7-dihydroxy-8-(4-methylpiperazin-1-ylmethyl)-2-phenyl-chromen-4-one]
Level of NO, red fluorescence (MCF-7 and COS-7): stronger red fluorescence than CH-j in MCF-7
logP (log P in Octanol/Water): 0.99
Autophagy (MCF-7 [2]): can cause autophagy
pKa (pKa): 4.9
Anti-proliferative activity, times stronger than BA-j [4]: 2 times
Anti-proliferative activity, times stronger than Chrysin [4]: 5 times
IC50 [4]: 2.3 µg/mL
IC50 ([4]; MTT, 48 h): 5.6 µM
IC50 (MCF-7 [6]): 5.2 ± 1.24 µM
IC50 (H-460): 5.6 ± 1.33 µM
IC50 (Hep G2): 6.1 ± 1.45 µM
IC50 (PC-3): 5.1 ± 1.17 µM
Bcl-2 expression (Bcl-2): Bcl-2 expression can be suppressed
Apoptosis by Hoechst 33258 staining (MCF-7 [12]): apoptosis cell percentage in dose dependent increase
IC50 (BGC-823): 5.2 ± 1.21 µM
CDK1 inhibition, times stronger than BA-j (CDK1): about 2 times
CDK1 50% inhibitory concentration (CDK1): 130 nM
BCS class [10]: BCS I
Solubility in water relative to BA-f ([10]; 37° C.): about 1000 times
Solubility in Octanol relative to BA analogue ([10]; CH-j vs BA-j, CH-f vs BA-f, 37° C.): about 20 times
solubility [10, 14]: 5510 µg/mL (≈ 13500 µM)
solubility ([10]; water, 37° C., read-out: Solubility in H2O): 564 µg/mL (≈ 1380 µM)

CN1CC[C@H](c2c(O)cc(O)c3c(=O)cc(-c4ccccc4Cl)oc23)[C@H](O)C1 [Flavopiridol]
Intravenous drip steady plasma concentration [13]: 0.27 µM
